Measurements from ChEMBL document CHEMBL1255360, “Daptomycin exerts bactericidal activity without lysis of Staphylococcus aureus” (2008).
≈ marks a conversion by molar mass, not a printed value. Calls of active or inactive are those of the source. No cut-off for these calls is given here.

How the values were obtained:
[1] = test system: Staphylococcus aureus; experiment: Bactericidal activity against Staphylococcus aureus ATCC 29213 assessed as membrane permeability at 4 ug/ml by ToPro3 dye based assay; assay type: functional, organism-based
[2] = test system: Staphylococcus aureus; experiment: Bactericidal activity against Staphylococcus aureus ATCC 29213 assessed as decrease in cell viability at 4 ug/ml within 120 mins; assay type: functional
[3] = test system: Staphylococcus aureus; experiment: Bactericidal activity against Staphylococcus aureus ATCC 29213 assessed as decrease in cell viability at MIC after 120 mins; assay type: functional
[4] = test system: Staphylococcus aureus; experiment: Bactericidal activity against Staphylococcus aureus ATCC 29213 assessed as cell lysis at 4 ug/ml after 60 mins by transmission electron microscopy; assay type: functional, organism-based
[5] = test system: Staphylococcus aureus; experiment: Bactericidal activity against Staphylococcus aureus ATCC 29213 assessed as altered cell morphology at 4 ug/ml after 60 mins by transmission electron microscopy; assay type: functional
[6] = test system: Staphylococcus aureus; experiment: Bactericidal activity against Staphylococcus aureus ATCC 29213 assessed as calcein release at 4 ug/ml; assay type: functional, organism-based
[7] = test system: Staphylococcus aureus; experiment: Bactericidal activity against Staphylococcus aureus ATCC 29213 assessed as cell lysis at 4 ug/ml after 120 mins; assay type: functional, organism-based
[8] = test system: Staphylococcus aureus; experiment: Bactericidal activity against Staphylococcus aureus ATCC 29213 assessed as cell lysis at MIC after 120 mins; assay type: functional
[9] = test system: Staphylococcus aureus; experiment: microbe, parasite or virus in culture; conditions: ATCC 29213
Description: Antimicrobial activity against Staphylococcus aureus ATCC 29213

SMILES | Activity [1] | fold change (FC) [2] | fold change (FC) [3] | Activity [4] | Activity [5] [%] | Activity [6] | Activity [7] | Activity [8] [%] | MIC [9] [µg/mL]
O=C(O)c1cn(C2CC2)c2cc(N3CCNCC3)c(F)cc2c1=O | inactive | – | – | – | – | – | – | – | –
CCCCCCCCCC(=O)N[C@@H](Cc1c[nH]c2ccccc12)C(=O)N[C@H](CC(N)=O)C(=O)N[C@@H](CC(=O)O)C(=O)N[C@@H]1C(=O)NCC(=O)N[C@@H](CCCN)C(=O)N[C@@H](CC(=O)O)C(=O)N[C@H](C)C(=O)N[C@@H](CC(=O)O)C(=O)NCC(=O)N[C@H](CO)C(=O)N[C@@H]([C@H](C)CC(=O)O)C(=O)N[C@@H](CC(=O)c2ccccc2N)C(=O)O[C@@H]1C | inactive | >1000 | 200 | inactive | >90 | inactive | inactive | 50 | 0.5 (≈ 0.309 µM)
